These results are taken from US12433836B2, “Parenterally administered immune enhancing drugs” (ARCUS BIOSCIENCES, INC., priority 2018, dated 2025).

Series [1] deals with squamous cell carcinoma of the head and neck. The settings on record: recurrent or metastatic squamous cell carcinoma of the head and neck; cited from earlier work.
Series [2] is described as follows: Pharmacokinetics after single IV bolus dose in mice.
Experimental: (§1) At the designated time points, blood was collected into tubes containing potassium EDTA and stored on ice until processed by centrifugation. The resultant plasma was stored in a freezer maintained at approximately −80° C.
(§2) Plasma samples were prepared by protein precipitation. An aliquot of 30 to 50 μL sample was mixed with acetonitrile containing an internal standard. The mixture was vortexed and then centrifuged. The resultant supernatant was directly analyzed by a sensitive and specific analytical procedure. Analytes were separated by liquid chromatography (LC), and detected by tandem mass spectrometry (MS/MS). The lower limit of quantitation (LLOQ) was 1.0 to 5.0 ng/mL.
Series [3] is described as follows: Pharmacokinetics after single IV bolus dose in rats.
Experimental: as §1, §2
Series [4] is described as follows: Pharmacokinetics after single IV bolus dose in monkeys.
Experimental: as §1, §2
Series [5] is described as follows: Pharmacokinetics after single IV bolus dose in dogs. The note with it: for CL: Dog, single dose IV bolus, mean noncompartmental; for volume of distribution at steady state, in words: dogs, single IV dose; for Vd / half-life: male, beagle, dog, iv.
Experimental: as §1, §2
The nature of series [6]: Pharmacokinetics in preclinical species, summary across species. The format is in vivo, mice, rats, dogs, monkeys. The note with it: single IV dose; for clearance (CL), in words: all preclinical species; for half-life: both sexes, CD-1 (mouse), Sprague-Dawley (rat), beagle (dog), mouse, rat, dog, cynomolgus monkey, plasma, range over preclinical species, read-out: terminal half-lives; for volume of distribution at steady state, in words: mice, rats and monkeys. The protocol:
Plasma samples were prepared by protein precipitation. […] The mixture was vortexed and then centrifuged.
Compound 1 and Compound 2 volume of distribution at steady (Vu) was low in mice, rats and monkeys, but moderate-to-high in dogs. The terminal half-lives (Ti2) of Compound 1 and Compound 2 ranged from 3.5 to 41 hours, and 6.5 to 34 hours, respectively.

For series [7], the system named is bladder cancer. The settings on record: cited from earlier work.
Setting [8] is: female, CD-1, mouse, in vivo, iv.
Setting [9] is: Rat, single dose IV bolus, mean noncompartmental.
The mark [10] stands for this setting: male, Sprague-Dawley, rat, plasma, iv.
[11] abbreviates: Monkey, single dose IV bolus, mean noncompartmental.
Setting [12] is: female, CD-1, mouse, plasma, iv.
[13] abbreviates: male, cynomolgus monkey, plasma, iv.

Where two headings read alike, the source gives them in different places.

nivolumab: PD-1 blocking antibody: the “estimated 1-year survival rate versus standard chemotherapy” value in series [1] is reported as “more than two-fold higher”.
As to `C[C@H](Nc1cc(Cl)nc2c1cnn2[C@@H]1O[C@H](COP(=O)(O)CP(=O)(O)O)[C@@H](O)[C@H]1O)c1ccc(F)cc1` [Compound 2], the Vd in series [2] (setting [8]) was determined as 0.11 L/kg; in series [3] (male, Sprague-Dawley, rat, in vivo, iv) it was 0.12 L/kg; in series [4] (male, cynomolgus monkey, in vivo, iv), 0.078 L/kg; in series [5] (in vivo), 0.63 L/kg. Besides, the clearance is 0.25 mL/min/kg in series [2] (setting [8]) and 0.155 mL/min/kg in series [3] (setting [10]). Further, the half-life in series [2] (setting [8]) was 6.5 h; in series [5] (in vivo), 15 h; in series [6], 6.5 to 34 h. Also, the figures for the T1/2 in series [3] (setting [9]) and in series [4] (setting [11]) were 9.6 h and 34 h, respectively. The CL in series [4] (setting [11]) was 0.0283 mL/min/kg; in series [5], 0.567 mL/min/kg. Besides, the “volume of distribution at steady state, in words” value in series [5] is listed as “moderate-to-high”; in series [6] it was “low”. Besides, the “clearance (CL), in words” value in series [6] is “low”.
For the molecule `C[C@H](Nc1cc(Cl)nc2c1cnn2[C@@H]1O[C@H](COP(=O)(O)CP(=O)(O)O)[C@@H](O)[C@H]1O)c1ccccc1F` [Compound 1], the CL in series [2] (Mouse, single dose IV bolus, mean noncompartmental) was 0.417 mL/min/kg; in series [3] (setting [9]) it was 0.333 mL/min/kg; in series [4] (setting [11]), 0.0417 mL/min/kg; in series [5], 0.833 mL/min/kg. Besides, the Vd in series [2] (setting [12]) was determined as 0.12 L/kg; in series [3] (setting [10]) it was 0.12 L/kg; in series [4] (setting [13]) it was 0.097 L/kg; in series [5] (plasma), 1.3 L/kg. In addition, the half-life in series [2] (setting [12]) was 3.5 h; in series [4] (setting [13]), 41 h; in series [5] (plasma) it was 21 h; in series [6] it was 3.5 to 41 h. The same molecule gave a T1/2 in series [3] (setting [9]) of 5.3 h. For the same molecule, the “volume of distribution at steady state, in words” value in series [5] was “moderate-to-high”; in series [6], “low”. The “clearance (CL), in words” value in series [6] is given as “low”.
Consider “atezolizumab: the first approved anti-PD-L1 therapy”, for which the response rate was 15% in series [7] (all patients) and 27% in series [7] (patients with more PD-L1-positive immune cells).
